Reference: ChEMBL document CHEMBL5303304, “EUbOPEN Chemogenomics Library - IncuCyte” (2023)

How the values were obtained:
Format in all cases: toxicity, cell-based
U2OS = experiment: Incucyte cell viability with U2OS; conditions: human, 10 µM, compound concentration 10 uM
Fibroblast = experiment: Incucyte cell viability with human fibroblast; conditions: 10 µM, compound concentration 10 uM
HEK-293T = experiment: Incucyte cell viability with HEK293T; conditions: human, 10 µM, compound concentration 10 uM
Also: unitless GR value; below 1 slowed growth and below 0 cell loss.

| Compound | Growth Rate (U2OS; 0 h, replicate number 2) | Growth Rate (U2OS; 6 h, replicate number 1) | Growth Rate (U2OS; 6 h, replicate number 2) | Growth Rate (U2OS; 12 h, replicate number 1) | Growth Rate (U2OS; 12 h, replicate number 2) | Growth Rate (U2OS; 18 h, replicate number 1) | Growth Rate (U2OS; 18 h, replicate number 2) | Growth Rate (U2OS; 24 h, replicate number 1) | Growth Rate (U2OS; 24 h, replicate number 2) | Growth Rate (Fibroblast; 0 h, replicate number 1) | Growth Rate (Fibroblast; 6 h, replicate number 1) | Growth Rate (Fibroblast; 6 h, replicate number 2) | Growth Rate (Fibroblast; 12 h, replicate number 1) | Growth Rate (Fibroblast; 18 h, replicate number 1) | Growth Rate (HEK-293T; 6 h, replicate number 2) | Growth Rate (HEK-293T; 12 h, replicate number 2) | Growth Rate (HEK-293T; 18 h, replicate number 2) | Growth Rate (HEK-293T; 24 h, replicate number 2) | Growth Rate (HEK-293T; 0 h, replicate number 2) | Growth Rate (Fibroblast; 0 h, replicate number 2) | other results |
| --- | --- | --- | --- | --- | --- | --- | --- | --- | --- | --- | --- | --- | --- | --- | --- | --- | --- | --- | --- | --- | --- |
| Cl.O=C(NCCN1CCC2(CC1)C(=O)NCN2c1cccc(F)c1)c1ccc2ccccc2c1 | -0.98 | 0.46 | 0.73 | 0.24 | 0.25 | -0.13 | 0.23 | -0.24 | 0.17 | -1 | -0.03 | -0.05 | -0.27 | -0.19 | -0.93 | -0.68 | -0.32 | -0.14 | – | – | Growth Rate (U2OS; 0 h, replicate number 1): -0.95; Growth Rate (Fibroblast; 12 h, replicate number 2): -0.26; Growth Rate (Fibroblast; 18 h, replicate number 2): -0.07; Growth Rate (Fibroblast; 24 h, replicate number 1): -0.27; Growth Rate (Fibroblast; 24 h, replicate number 2): -0.14; Growth Rate (HEK-293T; 6 h, replicate number 1): -0.37; Growth Rate (HEK-293T; 12 h, replicate number 1): 0.06; Growth Rate (HEK-293T; 18 h, replicate number 1): 0.22; Growth Rate (HEK-293T; 24 h, replicate number 1): 0.34 |
| CN[C@@H](C)C(=O)N[C@H](C(=O)N1CCC[C@H]1c1nc(C(=O)c2ccc(F)cc2)cs1)C1CCCCC1 [LCL-161] | – | 0.45 | – | 0.96 | – | 0.91 | – | – | – | – | – | 0.19 | – | – | 0.84 | 0.95 | – | – | -0.96 | – | Growth Rate (U2OS; 0 h, replicate number 1): -0.08; Growth Rate (Fibroblast; 18 h, replicate number 2): 0.88; Growth Rate (Fibroblast; 24 h, replicate number 2): 0.85; Growth Rate (HEK-293T; 6 h, replicate number 1): 0.22; Growth Rate (HEK-293T; 12 h, replicate number 1): 0.4; Growth Rate (HEK-293T; 18 h, replicate number 1): 0.53; Growth Rate (HEK-293T; 24 h, replicate number 1): 0.84 |
| CN(C)c1ncc2cc(-c3ccc(-c4ncccc4F)cc3Cl)c(=O)n(C[C@H]3OC[C@H](N)CO3)c2n1 | – | – | – | – | 0.96 | – | 0.99 | – | – | -0.2 | – | – | – | – | – | – | – | – | – | -0.89 | Growth Rate (HEK-293T; 0 h, replicate number 1): -1 |
| COC[C@@H](C)N[C@H]1CC[C@H](Nc2cc(-c3cccc(NCC4(C#N)CCOCC4)n3)c(Cl)cn2)CC1 | 0.56 | 0.79 | 0.56 | 0.88 | 0.62 | 0.59 | 0.71 | 0.79 | 0.68 | – | 0.06 | -0.13 | -0.08 | -0.12 | – | 0.18 | 0.24 | 0.35 | – | -1 | Growth Rate (Fibroblast; 12 h, replicate number 2): -0.06; Growth Rate (Fibroblast; 18 h, replicate number 2): -0.22; Growth Rate (Fibroblast; 24 h, replicate number 1): -0.09; Growth Rate (Fibroblast; 24 h, replicate number 2): -0.12; Growth Rate (HEK-293T; 6 h, replicate number 1): -0.07; Growth Rate (HEK-293T; 12 h, replicate number 1): 0.2; Growth Rate (HEK-293T; 18 h, replicate number 1): 0.22; Growth Rate (HEK-293T; 24 h, replicate number 1): 0.27 |
| NC1=NC(=O)/C(=C2\CCNC(=O)c3[nH]c4ccccc4c32)N1 | – | 0.43 | 0.45 | 0.63 | 0.7 | 0.74 | 0.65 | 0.78 | – | 0.39 | – | – | -1 | -0.07 | – | – | – | – | 0.25 | – | Growth Rate (HEK-293T; 0 h, replicate number 1): 0.81 |
| Nc1nc(-c2nn(Cc3ccccc3F)c3ncccc23)ncc1C1CC1 | – | 0.69 | – | – | – | – | 0.87 | 0.68 | 0.71 | – | 0.35 | – | – | 0.69 | – | – | – | – | 0.14 | -0.93 | Growth Rate (Fibroblast; 24 h, replicate number 1): 0.73; Growth Rate (Fibroblast; 24 h, replicate number 2): 0.8 |
| Cn1nc(C(=O)NCc2ccc(C(=O)O)cc2)cc1-c1ccc2[nH]ccc2c1 [BI 4395] | 0.14 | 0.66 | 0.99 | – | 0.96 | – | – | – | 0.9 | – | – | – | – | – | 0.57 | 0.63 | 0.85 | 0.56 | 0.58 | -0.67 | Growth Rate (HEK-293T; 0 h, replicate number 1): -0.1 |
| CC(C)S(=O)(=O)c1ccccc1Nc1nc(N[C@@H]2CCCN(CCCCCCCNC(=O)COc3cccc4c3C(=O)N(C3CCC(=O)N(C)C3=O)C4=O)C2)ncc1Cl (stereo not given in full) | – | 0.42 | 0.49 | 0.11 | 0.08 | -0.06 | -0.14 | -0.24 | -0.2 | -1 | 0.41 | 0.48 | -0.14 | -0.33 | -0.7 | -0.61 | -0.5 | -0.39 | -0.99 | – | Growth Rate (U2OS; 0 h, replicate number 1): -1; Growth Rate (Fibroblast; 12 h, replicate number 2): -0.21; Growth Rate (Fibroblast; 18 h, replicate number 2): -0.36; Growth Rate (Fibroblast; 24 h, replicate number 1): -0.23; Growth Rate (Fibroblast; 24 h, replicate number 2): -0.36; Growth Rate (HEK-293T; 0 h, replicate number 1): -1; Growth Rate (HEK-293T; 6 h, replicate number 1): -0.52; Growth Rate (HEK-293T; 12 h, replicate number 1): -0.4; Growth Rate (HEK-293T; 18 h, replicate number 1): -0.33; Growth Rate (HEK-293T; 24 h, replicate number 1): -0.27 |
| CC1(C)CC(=O)c2c(SCCO)sc(-c3nccs3)c2C1 | – | 0.66 | – | 0.87 | – | 0.97 | – | – | 0.97 | – | -1 | – | – | – | – | – | – | – | 0.82 | -0.3 | – |
| Cc1cc2c(-c3ccco3)cnc(N[C@H]3CCN(C)C[C@@H]3C(=O)NC3CCCCC3)c2[nH]c1=O [GSK791] | – | – | – | -0.81 | – | – | – | – | – | – | 0.66 | 0.72 | 0.82 | – | – | – | – | – | -0.74 | – | Growth Rate (U2OS; 0 h, replicate number 1): -0.05 |
| COc1cc(N(C)c2ccnc3ccc(C(F)(F)F)cc23)cc(OC)c1OC | 0.66 | – | 0.7 | 0.9 | 0.88 | – | 0.92 | 1 | 0.84 | 0.97 | -0.52 | 0.41 | – | – | -0.32 | 0.01 | 0.27 | 0.48 | -1 | – | Growth Rate (Fibroblast; 12 h, replicate number 2): 0.94; Growth Rate (Fibroblast; 18 h, replicate number 2): 0.91 |
| COc1cc(N)c(Cl)cc1C(=O)NC1CN2CCC1CC2.Cl (stereo not given) | -0.2 | 0.67 | 0.95 | 0.95 | – | – | 1 | – | – | – | -0.82 | -0.28 | 0.48 | – | -0.12 | 0.19 | 0.29 | 0.38 | – | -0.73 | Growth Rate (HEK-293T; 6 h, replicate number 1): -0.18; Growth Rate (HEK-293T; 12 h, replicate number 1): 0.31; Growth Rate (HEK-293T; 18 h, replicate number 1): 0.18; Growth Rate (HEK-293T; 24 h, replicate number 1): 0.31 |
